Marks after values point to notes of the source that are not given here.
How the values were obtained:
KSHV K3 and K5 = assay: K3 and K5 protein expression in BCBL-1 cells after lytic activation, Western blot; format: cell-based; details: following lytic activation
Protocol: Western Blotting: At the end of an incubation period, cells were lysed and nuclear/cytoplasmic extracts were prepared using the NE-PER nuclear extraction kit (Pierce). Samples were subjected to SDS-PAGE (4 to 12% NuPAGE Tris-Bis) (Invitrogen) and transferred to nitrocellulose. The membrane was blocked with 5% w/v nonfat dry milk in 1×TBST (10 mM Tris-Hcl, […], 150 mM NaCl, and 0.05% Tween 20) overnight at 4° C. Blots were incubated with indicated antibodies such as anti-IRF-7 (Santa Cruz), anti-IRF-4 (Cell Signaling), anti-p21 (Cell Signaling), anti-NF-κB p65 (Cell Signaling), anti-NF-κB phospho-p65 (Cell Signaling), IFN-γRa (Cell Signaling), or anti-CRBN (Sigma-Aldrich), and subjected to the appropriate secondary antibody conjugated to alkaline phosphatase (Promega). Bands were visualized with Western Blue stabilized substrate (Promega). Membranes were scanned and images were processed as described.
Flow Cytometry Analysis and Antibodies: For flow cytometry analysis of MHC-I expression, cells were plated at 400,000 cells/mL and pretreated with immunomodulatory agents as indicated. After twenty-four hours, cells were treated with butyrate at indicated amounts to induce lytic activation and down-regulation of MHC-I. After another twenty-four hours, cells were analyzed on FACS and extracts were prepared as indicated. […]

MHC-1 = assay: K3/K5 mediated MHC-1 down-regulation in K3 or K5 transfected KSHV-negative BJAB cells; format: cell-based
Protocol: FIGS. 9A-9E. […] 24 hours after electroporation, FACS analysis was done using half of the cells. […] The remaining cells were subjected to lysis, protein extraction, and western blot. Blots were probed with antibodies to the indicated proteins.

Kaposi sarcoma = assay: Clinical study of pomalidomide in Kaposi sarcoma patients with and without HIV: KS responses by modified ACTG criteria; format: in vivo, human
Protocol: Enrollment: 22 patients (15 HIV positive and 7 HIV negative) median age 52 years (range 32-74) were studied. All patients with HIV were receiving antiretroviral therapy (ART) for median 48 months (7-227), HIV VL<50 copies/mL (all), and CD4 count 378 cells/μl (135-752). […] All were evaluable for response.
Aspirin at 81 mg daily was administered as thromboprophylaxis. Assessments were performed every 4 weeks for lymphocyte numbers, Kaposi sarcoma associated herpesvirus (KSHV/HHV8) viral load (VL) and HIV VL and at 8 weeks for T cell subsets and activation by immunophenotyping of peripheral blood mononuclear cells (PBMC). KSHV VL in PBMC and HIV VL in plasma were assayed by quantitative PCR; an ultrasensitive single copy assay was used for HIV VL. Changes from baseline were evaluated using the Wilcoxon signed rank test with P<0.005 considered significant given multiple comparisons. Differences in changes between the HIV infected and uninfected groups were evaluated using the Wilcoxon rank sum test. Median time of the patients on therapy 7 cycles (range 2-12).
Kaposi sarcoma responses: KS responses were evaluated every cycle and categorized as complete (CR), partial (PR), stable disease (SD), or progressive disease (PD) using modified ACTG criteria. To be evaluable for response, patients completed at least two cycles of therapy. Evaluations included lesion counts, measurement of the sum product of the diameters of five indicator lesions, assessment of nodularity, and measurement of limb circumference if tumor-associated edema was present. PR was considered as at least 50% decrease in number of lesions and/or sum product of the diameters of marker lesions and/or nodularity of lesions, and no new lesions in previously uninvolved areas nor criteria for PD. CR was considered as clinical resolution of all lesions and tumor-associated phenomenon, with biopsy confirmation. Both CR and PR had to be sustained for 4 weeks. Best response was evaluated for each patient.
Complete and partial responses are objective tumor responses by modified AIDS Clinical Trial Group Criteria for KS. Complete response also requires pathological confirmation. Individual responses are shown in FIG. 1A (maximal change in number of nodular lesions) and FIG. 1B (maximal change in total number of lesions). No decrease in quality of life during therapy was reported by patient. Improved satisfaction with appearance was reported by patients. […] This includes objective responses in patients previously refractory to standard cytotoxic therapy and in patients who have previously received other immunomodulatory drugs (e.g., thalidomide, lenalidomide, or both).
HIV infected and uninfected cohorts were evaluated separately and combined. The unacceptable ORR for further development was defined as 10% and a desirable (targeted) ORR as 40%. Up to 10 HIV negative patients were to be enrolled, with the goal of […]; that would have 83.3% probability of occurring if the true ORR were 40% and 7.0% probability of occurring if the true ORR were 10%. Up to 15 HIV positive patients were to be enrolled, with the goal of […]; that would have 90.9% probability of occurring if the true ORR were 40% and 5.6% probability of occurring if the true ORR were 10%.

[1] = Combined, 22 assessable, patients (%), 5 mg per day orally 21 of 28 days
[2] = HIV negative, 7 assessable, patients (%)
[3] = HIV positive, 15 assessable, patients (%)

## Nc1cccc2c1C(=O)N(C1CCC(=O)NC1=O)C2=O (stereo not drawn) [pomalidomide, 4-amino-2-(2,6-dioxopiperidin-3-yl)isoindoline-1,3-dione]
KSHV K3 and K5; FIG. 8
  protein expression level of KSHV K3 or K5: appears not to prevent K3 and K5 expression
KSHV K3 and K5; FIG. 8, listed as Pomalidomide
  protein expression level of KSHV K3 or K5: did not significantly change the protein expression level
MHC-1; 10 μM for 48 hours before electroporation
  down-regulation of MHC-1 by plasmids encoding K3 or K5: prevented
MHC-1; 10 μM for 48 hours, GFP-positive cells
  prevention of MHC I knockdown, FACS analysis with K5: not consistently observed
MHC-1; 10 μM for 48 hours, K3 or K5 plasmids
  MHC I knockdown, western blots: preventing MHC I knockdown
Kaposi sarcoma; 5 mg for 21 of 28 days
  response in HIV-uninfected subjects: all HIV-uninfected subjects responded
Kaposi sarcoma; 5 mg for 21 of 28 days, symptomatic KS regardless of HIV status
  overall response rate: 73%
Kaposi sarcoma; 10 of 17 subjects with edema
  subjects with edema having evidence of improvement in tumor-associated edema: 59%
Kaposi sarcoma; [1]
  Complete Response (CR): 4 (18%)
  Partial Response (PR): 12 (55%)
  Progressive Disease (PD): 3 (14%)
Kaposi sarcoma; Combined, 22 assessable, patients (%), 5 mg per day orally 21 days of 28 day cycles
  Overall Response (CR + PR): 16 (73%)
Kaposi sarcoma; Combined, range (4-36)
  Time to Response: 4 weeks
Kaposi sarcoma; HIV negative, 7 assessable, patients
  Progressive Disease (PD): 0
Kaposi sarcoma; [2]
  Complete Response (CR): 1 (14%)
  Partial Response (PR): 6 (86%)
Kaposi sarcoma; HIV negative, 7 assessable, patients (%), 5 mg per day orally 21 of 28 days
  Overall Response (CR + PR): 7 (100%)
Kaposi sarcoma; HIV negative, range (4-36)
  Time to Response: 4 weeks
Kaposi sarcoma; [3]
  Complete Response (CR): 3 (20%)
  Partial Response (PR): 6 (40%)
Kaposi sarcoma; HIV positive, 15 assessable, patients (%), 5 mg per day orally 21 of 28 days
  Overall Response (CR + PR): 9 (60%)
Kaposi sarcoma; HIV positive, 15 assessable, patients (%), includes one subject non-adherent to ART and protocol therapy
  Progressive Disease (PD): 3 (20%)*
Kaposi sarcoma; HIV positive, range (4-32)
  Time to Response: 8 weeks
Kaposi sarcoma; including patients refractory to cytotoxic therapy or previously given other immunomodulatory drugs
  KS responses, character: responses were generally rapid, were linked to improved self reported outcomes, and occurred even in advanced and heavily pretreated KS
Kaposi sarcoma; number of subjects, of 17 with edema
  subjects in whom limb circumference showed at least a 2 cm reduction with therapy: 8
Kaposi sarcoma; one patient, after 4 weeks, FIG. 10B
  representative response of a left great toe lesion: complete flattening of the lesion
Kaposi sarcoma; same patient, 24 weeks, FIG. 10C
  representative response of a left great toe lesion: complete resolution of the lesion and a complete pathological response

— patent publication US10001483B2, “Methods for the treatment of Kaposi's sarcoma or KSHV-induced lymphoma using immunomodulatory compounds, and uses of biomarkers” (Celgene Corporation, priority 2015, dated 2018)
